≈ marks a conversion by molar mass, not a printed value. Entries after “also recorded” stand apart in the source; their conditions may differ. Like-named read-outs stand apart in the source and are kept apart here.
Key:
rLipGMTB = experiment: Inhibition of rLipGMTB, enzyme-inhibitor pre-incubation method, residual activity on pNP-C6; format: biochemical; conditions: for xI50: inhibitor molar excess leading to 50% enzyme inhibition; for xI50 / % inhibition xI = 4 / % inhibition xI = 100: 30-min incubation at 25°C, substrate pNP-C6; for % inhibition xI = 4: inhibitor molar excess xI = 4; for % inhibition xI = 100: inhibitor molar excess xI = 100; for Inhibitory effect on rLipGMTB (in words): pure rLipGMTB, molar excess up to xI = 100
[1] = system: intramacrophagic M. tuberculosis; design: method as in PMID 28924204, PMID 30292819; conditions: infected macrophages; ref [28],[42]; cited from earlier work
[2] = system: extracellular M. tuberculosis; conditions: cited from earlier work; for Activity against extracellular M. tuberculosis (in words): growth in vitro, ref [28],[42]; for Activity against extracellularly growing M. tuberculosis (in words): ref [27],[28]
M. smegmatis lipGMS::Hyg = experiment: microbe, parasite or virus in culture; format: cell-based; conditions: for MIC50: Mycolicibacterium smegmatis
[3] = system: M. smegmatis lipGMS::Hyg Comp; experiment: microbe, parasite or virus in culture; format: cell-based; conditions: for MIC50: Mycolicibacterium smegmatis; for Fold change compared with WT: MIC50 of lipGMS::Hyg Comp strain versus WT
[4] = system: M. smegmatis lipGMS::Hyg CompMTB; experiment: microbe, parasite or virus in culture; format: cell-based; conditions: for Fold change compared with WT: MIC50 of lipGMS::Hyg CompMTB strain versus WT; for MIC50: Mycolicibacterium smegmatis
M. smegmatis WT = experiment: REMA susceptibility testing, WT strain
Protocol: Susceptibility testing was performed using the Middlebrook 7H9 broth microdilution method. All assays for each strain were carried out at least in triplicate. MICs against the various M. smegmatis bacterial strains were determined in 96-well flat-bottom Nunclon Delta Surface microplates with lid (Thermo Fisher Scientific) using REMA method [59]. Briefly, log-phase bacteria were diluted to a cell density of 5 × 10^6 cells/ml in 7H9-S medium. […] Growth controls containing no inhibitor (i.e., bacteria only), inhibition controls containing 50 μg/ml kanamycin and sterility controls (i.e. medium only) without inoculation were also included. Plates were incubated at 37°C in a humidity chamber [60] to prevent evaporation for 3–5 days. Then, 20 µl of a 0.02% (w/v) resazurin solution was added to each well, and the plates were incubated at 37°C for color change from blue to pink or violet and for a reading of fluorescence units (FU). Fluorescence corresponding to the resazurin reduction to its metabolite resorufin was quantitated using a Tecan Spark 10M multimode microplate reader (Tecan Group Ltd, France) with excitation at 530 nm and emission at 590 nm. Fluorometric MICs were determined by fitting the RFU% sigmoidal dose–response curves [28, 29] in Kaleidagraph 4.2 software (Synergy Software). MIC values determined as the lowest compound concentrations inhibiting 50% of growth were defined as the MIC50.

[5] = Mycolicibacterium smegmatis, WT strain, REMA, concentration leading to 50% growth inhibition
[6] = WT strain, REMA, concentration leading to 50% growth inhibition

| Structure (SMILES) | xI50 (rLipGMTB) | % inhibition xI = 4 (rLipGMTB) | % inhibition xI = 100 (rLipGMTB) | Inhibitory effect on rLipGMTB (in words) (rLipGMTB) | Activity against intramacrophagic M. tuberculosis (in words) [1] | Activity against extracellular M. tuberculosis (in words) [2] | MIC50 (M. smegmatis lipGMS::Hyg) | MIC50 ([3]; lipGMS::Hyg Comp strain, REMA, concentration leading to 50% growth inhibition, read-out: MIC50) | Fold change compared with WT [4] | MIC50 ([4]; lipGMS::Hyg CompMTB strain, REMA, concentration leading to 50% growth inhibition, read-out: MIC50) | Activity against extracellularly growing M. tuberculosis (in words) [2] | MIC50 (M. smegmatis WT; Mycolicibacterium smegmatis) | Fold change compared with WT (M. smegmatis lipGMS::Hyg; MIC50 of lipGMS::Hyg strain versus WT) | Fold change compared with WT [3] | MIC50 [3] | MIC50 (M. smegmatis WT; [5]) | MIC50 [4] | MIC50 (M. smegmatis WT; [6]) |
| --- | --- | --- | --- | --- | --- | --- | --- | --- | --- | --- | --- | --- | --- | --- | --- | --- | --- | --- |
| CCCCCCCCCCC1CCP(=O)(OC)OC(C)=C1C(=O)OC (stereo not drawn) [CyC7α] | 5.0 | 47.4 ± 0.81% | 81.4 ± 1.6% | strong dose-dependent inhibition | active on infected macrophages only |  |  |  |  |  |  |  |  |  |  |  |  |  |
| CCCCCCCCCCC1CCP(=O)(OC)OC(C)=C1C(=O)OC (stereo not drawn) [CyC7β] | 48.1 | 7.9 ± 0.72% | 57.6 ± 2.0% | very weak inhibitory effects | strong activity | strong activity |  |  |  |  |  |  |  |  |  |  |  |  |
| CCCCCCCCCCCCC1CCP(=O)(OC)OC(C)=C1C(=O)OC (stereo not drawn) [CyC8β] | >200 | 3.2 ± 0.16% | 32.0 ± 1.5% | very weak inhibitory effects | active on infected macrophages only |  |  |  |  |  |  |  |  |  |  |  |  |  |
| CCCCCCCCCCCCCCCCOP1(=O)OCCC(C(=O)OC)=C(C)O1 (stereo not shown) [CyC17] | 0.98 | 66.4 ± 4.5% | 95.4 ± 2.6% | strong dose-dependent inhibition; also recorded: strong inhibitory effect | no activity | efficiently block M. tuberculosis growth in vitro | 9.6 µg/mL (≈ 21.5 µM) | 0.6 µg/mL (≈ 1.34 µM) | ×1.1 | 0.65 µg/mL (≈ 1.46 µM) | only active against extracellularly growing M. tuberculosis strain | 0.56 µg/mL (≈ 1.25 µM) |  |  |  |  |  |  |
| CCCCCCOc1nn(-c2ccccc2)c(=O)o1 [HPOX] | 2.9 | 58.5 ± 1.4% | 93.8 ± 5.7% | strong inhibitory effect | no activity | efficiently block M. tuberculosis growth in vitro | 18.4 µg/mL (≈ 70.1 µM) |  |  |  | only active against extracellularly growing M. tuberculosis strain |  | 2.2 × | ~1.5 × | 12.2 µg/mL (≈ 46.5 µM) | 8.4 µg/mL (≈ 32 µM) |  |  |
| CCCCCCOc1nn(-c2ccc(Oc3ccccc3)cc2)c(=O)o1 [HpPPOX] | 3.5 | 61.8 ± 4.7% | 73.8 ± 1.0% |  | active on infected macrophages only |  |  |  |  |  |  |  |  |  |  |  |  |  |
| NNC(=O)c1ccncc1 [INH, isoniazid] |  |  |  |  |  |  | 2.9 µg/mL (≈ 21.1 µM) |  | ×1.3 |  |  |  |  | ×1.2 | 1.8 µg/mL (≈ 13.1 µM) | 0.76 µg/mL (≈ 5.54 µM) | 1.9 µg/mL (≈ 13.9 µM) | 1.4 µg/mL (≈ 10.2 µM) |
| COc1nn(-c2cccc(Oc3ccccc3)c2)c(=O)o1 [MmPPOX] | 3.1 | 54.1 ± 1.5% | 82.0 ± 3.8% |  |  |  |  |  |  |  |  |  |  |  |  |  |  |  |
| CCCCCCCCCCC[C@@H](C[C@@H]1OC(=O)[C@H]1CCCCCC)OC(=O)[C@H](CC(C)C)NC=O [Orlistat, reference compound] | 15.2 | 10.8 ± 0.17% | 69.5 ± 5.3% | moderate inhibitory activity |  |  | 6.5 µg/mL (≈ 13.1 µM) |  | ×1.6 |  |  |  |  | ×1.3 | 1.2 µg/mL (≈ 2.42 µM) | 0.97 µg/mL (≈ 1.96 µM) | 1.6 µg/mL (≈ 3.23 µM) |  |
| CO[C@H]1/C=C/O[C@@]2(C)Oc3c(C)c(O)c4c(O)c(c(/C=N/N5CCN(C)CC5)c(O)c4c3C2=O)NC(=O)/C(C)=C\C=C\[C@H](C)[C@H](O)[C@@H](C)[C@@H](O)[C@@H](C)[C@H](OC(C)=O)[C@@H]1C [RIF, rifampicin] |  |  |  |  |  |  | 3.3 µg/mL (≈ 4.01 µM) |  | ×1.3 |  |  |  |  | ×1.2 | 0.89 µg/mL (≈ 1.08 µM) | 1.4 µg/mL (≈ 1.7 µM) | 0.96 µg/mL (≈ 1.17 µM) | 0.76 µg/mL (≈ 0.924 µM) |
| CC(C)COc1nn(-c2ccc(Oc3ccccc3)cc2)c(=O)o1 [iBpPPOX] | 14.7 | 40.5 ± 3.1% | 60.6 ± 0.22% |  | strong activity | strong activity |  |  |  |  |  |  |  |  |  |  |  |  |

Source: paper PMC6435540, “LipG a bifunctional phospholipase/thioesterase involved in mycobacterial envelope remodeling” (Bioscience Reports, 2018)
